Source: a melting point compilation (Tetko et al.; mined from patent text by program, amines drawn as free bases though some values may be those of a salt)

melting point [°C]	Structure (SMILES)
178 to 180	Cc1nn(-c2ccc(F)cc2)cc1C(=O)N(CCCC(=O)O)c1ccc(OCC(C)(C)C)c(C#N)c1
64 to 66	Clc1cc(N2CCCCCC2)nc(-c2ccccc2)n1
103 to 104	CN(C)Cc1cccc(OCCCNc2ncc(Cc3cccnc3)c(=O)[nH]2)c1
245 to 248	CCCCS(=O)(=O)NC(=O)/C=C/c1c(C)nn(C)c1-n1ccc2cc(Cl)cnc21
189	CCOc1ccc(-c2c(Cl)ncn2-c2ccc(S(=O)(=O)NC(C)(C)C)cc2)cc1
140 to 144	CC(=O)OC1CSC(Oc2ccc(C)nc2-c2ccncc2)C(OC(C)=O)C1OC(C)=O (configuration not stated)
217 to 219	Cc1ccnc(C(=O)c2[nH]c3cc(Cl)ccc3c2NC(=O)C(C)(C)O)c1
126 to 127	Fc1ccccc1-c1nc2ncccc2o1
144 to 146	O=[N+]([O-])c1cccc2c(Cl)ccnc12
164 to 165	c1ccc(CN(Cc2ccccc2)c2nccc(-c3ccc(-c4ccc(N(c5ccccc5)c5ccccc5)cc4)cc3)n2)cc1
153 to 155	CSc1[nH]c(-c2cnn(-c3c(Cl)cc(C(F)(F)F)cc3Cl)n2)nc1[N+](=O)[O-]
279 to 280	Clc1ccc(Nc2nc(-c3nccc4ccccc34)nc3ccccc23)cc1
74.5 to 77	Cc1cccc(C#N)c1[N+](=O)[O-]
104 to 110	FC(F)(F)c1ccc(Oc2ccc3c(c2)OCC(c2ccccc2)O3)nc1 (configuration not stated)
121 to 123	CC(=O)COC(=O)C=CC(=O)OCC(C)=O
168 to 169	Cc1nc2c(Cl)c(NC(=O)c3ccc(-c4ccccc4)cc3)ccc2s1
81.5 to 82.3	CCOc1ccc(-c2nc(CCl)cs2)cc1OCC
172 to 173	COCCCc1ccc2oc(-c3cc4cccn4cn3)cc(=NO)c2c1
144 to 145	CCOC(=O)c1cccc(NC(=O)c2cc(C(C)C)c(C(C)C)o2)c1
95	CC(C)(C)c1ccc(S(=O)(=O)/C=C/c2ccccc2)cc1
124 to 126	O=C(Nc1ccccc1-c1ccc(Cl)cc1F)c1cccnc1Cl
177 to 178	CC(C)(C)OC(=O)N1CCCN(c2ccnc3sc(C(N)=O)c(N)c23)CC1
255 to 259	c1csc(Nc2ccnc3cn[nH]c23)c1
191	CN1C=C(C(=O)Nc2ccccc2)C(C(F)(F)F)N1CO (configuration not stated)
75 to 75.5	COC(=O)/C=C/c1nccs1

melting point [°C]	Structure (SMILES)
122	Fc1ccc(-c2cnc3ccccc3n2)cc1
163 to 166	COc1cc(C(=O)NC2CN(C)N(C)C2)cc(OC)c1OC
63 to 64	Cc1cc2c(c(C)c1Br)C(=O)C(C)(C)O2
265	Cc1nc(NC(=O)c2cnn3c(C(F)(F)F)cc(-c4ccc(Cl)c(Cl)c4)nc23)sc1S(=O)(=O)NC(C)(C)CO
85 to 87	CSc1ccc(-c2c(Br)cnn2-c2ccc(F)cc2)cc1
243 to 244	CCc1nc2c(N)nc3ccccc3c2n1CCC1(O)CCOCC1
130 to 132	COC(=O)c1ccc(Br)c(O)c1
265 to 268	CCc1noc(-c2cc3c(-c4cccs4)nccc3[nH]c2=O)n1
202 to 204	CCCc1nn(C)c2c(=O)[nH]c(Cc3ccccc3NS(=O)(=O)CCCN(C)C)nc12
88 to 90	Cc1ccc2c(c1)S(=O)(=O)NCN2CCF
120 to 121	COc1cc(CO)ccc1C12CC3CC(CC(C3)C1)C2
81 to 83	CCOC(=O)C(Cc1ccc(OCc2ccccc2)cc1)OS(C)(=O)=O (configuration not stated)
102 to 105	Cc1cccc(-c2[nH]c(C(C)C)nc2-c2ccc(F)c(-c3ccc(S(C)(=O)=O)nc3)c2)n1
112 to 114	CC1CC(=Cc2ccccc2O)C(=O)O1 (configuration not stated)
85.5	COc1cc(O)c(C(=O)C=Cc2ccccc2)c(OC)c1
143 to 146	CC(C)C(NC(=O)OCCN1CCCC1)C(=O)NC(Cc1ccccc1)C(O)C(Cc1ccccc1)NC(=O)C(NC(=O)OCc1ccccc1)C(C)C (configuration not stated)
122 to 124	O=C(C=Cc1ccncc1)c1ccco1
140 to 142	CCSCCn1cc(C(=O)NCc2ccc(Cl)cc2)c(=O)c2cc(CN3CCOCC3)ccc21
116 to 117	COc1cc(C=C(C)[N+](=O)[O-])ccc1OCC(=O)O
82 to 83	C=CCOc1cc(NCC)c(C(C)=O)cc1C(C)=O
95 to 97	CCc1nsc(N=C(Cl)N(C)C)c1C#N
190 to 192	CCOC(=O)NNc1ccc(-c2ccc(Br)cc2)nn1
213	COc1ccc2c(c1)sc1nc(C(=O)C3CC3)cn12
159 to 161	O=C(O)CCOC(c1ccccc1)(c1ccccc1)c1ccccc1
67 to 71	N[C@@H](Cc1cccc(Oc2ccc(Oc3ccc(O)cc3)cc2)c1)C(=O)O

melting point [°C]	Structure (SMILES)
143 to 146	COC(=O)C(C)(C(=O)O)N1C(=O)CCC(N2C(=O)c3ccccc3C2=O)C1=O (configuration not stated)
115 to 117	CCCC(=O)c1c[nH]c2c(COC(=O)c3ccccc3)cccc2c1=O
158	CC(C)Oc1ccc(-c2cncc(OC3SCC(O)C(O)C3O)c2)cc1 (configuration not stated)
83 to 85	O=Cc1c(Cl)cc(OCCO)cc1Cl
168 to 169	COc1cc2c(cc1OC)CC1(CC2)NC(=O)CC(C)C1=O (configuration not stated)
100 to 103	COc1ccc(CCC(=O)NCCc2cccc(C)c2)cc1OC
166 to 168	CC1CC(=O)NN=C1c1ccc2c(c1)NCCO2 (configuration not stated)
149 to 151	COc1ccc(-c2cc(C)cn2-c2ccc(S(N)(=O)=O)cc2)cc1C
178 to 182	CCCc1c(OCCCCCOc2ccc(C(=O)Cc3ccccc3C(=O)O)cc2CCC(=O)O)ccc2c1OCCC2=O
159 to 161	Nc1ccc(C#Cc2ccccc2)c(-c2cc(N)ccc2C#Cc2ccccc2)c1
87 to 89	CCCCCCCCCCCCCCC(=O)C(=O)N[C@H](C(=O)NCC(=O)O)C(C)C
152 to 153	CCC(=O)c1cccc(S(N)(=O)=O)c1
96 to 97	Cc1c(C)c2c(c(C)c1N)CC(C)(CSc1ccncc1)O2 (configuration not stated)
223 to 224	CCCCc1nc2c(N)nc3ccccc3c2n1CCCCNS(=O)(=O)c1cccc2c(N(C)C)cccc12
152 to 153	CNc1ccc(Cl)cc1-c1nnc(C(F)(F)F)n1CC(=O)N1CCOCC1
118 to 119	NS(=O)(=O)c1ccc(C2=C(c3ccc(F)cc3)CC3(CCC3)C2)cc1
183 to 185	COc1cccc(-c2nn(Cc3ccccc3)c3ncnc(O)c23)c1
245 to 246	CC1CC(=O)NN=C1c1ccc(NC(=O)OC2CCC2)cc1 (configuration not stated)
109 to 111	Cc1ccc(CN(C(=S)Nc2ccccc2)C2CCCC2)cc1
181 to 182	CN(C)c1nc(N)ncc1Cc1ccccc1
134 to 135	Cc1noc2cc3c(cc12)C1(CO3)C(=O)N(CC2CCCO2)c2ccccc21 (configuration not stated)
239 to 241	NC(=O)c1csc(-c2cccc([N+](=O)[O-])c2)n1
158 to 160	CCOC(=O)c1c(CCc2ccc(C(F)(F)F)cc2)nc2c(c1-c1ccc(C(=O)N[C@@H](C)c3ccncc3)cc1)C(=O)N1CCC[C@@H]21
217 to 218	O=C1NC(=O)C2(c3ccccc3)CC1C2
213 to 215	O=C(Nc1ccc(Cl)cc1)c1cc(Br)c2cccnc2c1O

melting point [°C]	Structure (SMILES)
209 to 211	CCCNC(=O)N(C)C1CCN(c2ncnc3cc(OC)c(OC)cc23)CC1
106 to 110	O=C(NCc1ccccn1)OC1Cc2ccccc2N(S(=O)(=O)c2ccc(Cl)cc2)C1 (configuration not stated)
185	CCCOC(=N)c1sc2ccccc2c1O
51 to 53	Cc1cc(I)ccc1N=C=S
198 to 200	CC1(C)SC(=NO)NC1=O
210 to 212	O=C(c1cc(Br)c(OCP(=O)(O)O)c(Br)c1)c1c(Cc2ccccc2)sc2ccccc12
202 to 204	CC(=O)[NH+]([O-])C[C@@H]1CN(c2ccc(N3CCOCC3)c(F)c2)C(=O)O1 (some centres not stated)
55 to 56	CC(C)(C)C(=O)OCOC(=O)c1cccnc1Nc1cccc(C(F)(F)F)c1
55 to 56	CCc1nsc(C(=O)NC(C)C)c1C(=O)OC
135 to 136	COC(=O)C(=O)c1ccc(OCCOc2ccc3ccccc3c2)cc1F
185 to 186	Cc1ccc(-c2ccc(S(C)(=O)=O)cc2)n1-c1ccc(-c2cccs2)cc1
121 to 122	CCCc1c[nH]nc1OCCCc1cn(-c2ccc(C(F)(F)F)cn2)nc1OCC
115 to 118	Cc1c(-c2cccc(O)c2)n(Cc2ccc(OCCN3CCCCC3)cc2)c2ccc(O)cc12
176 to 177	CC(C)(C)c1ccc(CCC=O)cc1NC(=O)CC1c2ccccc2Oc2ccccc21
198	O=C(CC1CC1)N[C@H]1CC[C@H](CCN2CCN(c3nccc4c3OCC4)CC2)CC1
214 to 215	Cc1oc(C=Cc2cccc(Cl)c2)nc1CC(=O)O
232 to 233	Cn1cc(C(=O)NCc2ccc(Cl)cc2)c(=O)c2cc(Br)oc21
57 to 58	CC(=Cc1ccccc1)c1ccc2c(c1)SC(C)(C)S2
159 to 161	COc1cc(OC)cc(-c2nc[nH]c2-c2ccc(OC(F)F)c(O)c2)c1
95 to 96	CCOC(=O)C(CCN1CCN(c2ncc(F)cn2)CC1)C(=O)c1ccc(F)cc1 (configuration not stated)
88 to 89	CCCCCC(=O)n1c(=O)n(CCCC)c(=O)n1C(=O)CCCCC
204 to 206	Cc1ccn2c(C)c(-c3ccc4sc(=O)n(C)c4c3)nc2c1

Structure (SMILES)	melting point [°C]
O=C(CNC(=O)c1ccncc1)NC1CCN(CCc2c[nH]c3ccccc23)CC1	211 to 215
CC12CC(=O)C3C(CCC4CC(O)CCC43C)C1CCC2C(=O)COc1ccc([N+](=O)[O-])cc1 (configuration not stated)	186 to 187
Cc1c2c(cn1C)N(C)C(=O)C(OC(=O)c1ccccc1)N=C2c1ccccc1Cl (configuration not stated)	228 to 229
CCNn1cc(C(=O)O)c(=O)c2cc(F)c(N3CCNCC3)cc21	289 to 291
CCCC12CCC3C4CCC(=O)C=C4CCC3C1CCC2OC(=O)CCc1ccccc1 (configuration not stated)	104 to 108
